According to ChEMBL document CHEMBL4665876, “Protection of all cleavable sites of DNA with the multiple CGCG or continuous CGG sites from the restriction enzyme, indicative of simultaneous binding of small ligands” (Bioorg Med Chem, 2020):
Active and inactive are the calls of the source. The rule behind the calls is not given here.

Columns and labels:
Assay type in all cases: nucleic-acid assay
[1] = test system: Nucleic Acid; experiment: Binding affinity to GC5(5) of DNA (unknown origin) assessed as inhibition of ACCII mediated DNA hydrolysis at 1 uM preincubated for 14 hrs followed by ACCII addition and measured after 120 mins by SYBR staining-based PAGE analysis; settings: Homo sapiens, time 16.0 hrs
[2] = test system: Nucleic Acid; experiment: Binding affinity to CGCG site of DNA (unknown origin) at 10 uM by PAGE analysis
[3] = test system: Nucleic Acid; experiment: Binding affinity to d(CGG) of DNA (unknown origin) assessed as inhibition of Fnu4HI mediated DNA hydrolysis preincubated for 14 hrs followed by Fnu4HI addition and measured after 60 mins by SYBR staining-based PAGE analysis; settings: Homo sapiens
[4] = test system: Nucleic Acid; experiment: Binding affinity to GC2(5) site of DNA (unknown origin) assessed as inhibition of ACCII mediated DNA hydrolysis at 50 uM preincubated for 14 hrs followed by ACCII addition and measured after 120 mins by SYBR staining-based PAGE analysis; settings: Homo sapiens
[5] = test system: Nucleic Acid; experiment: Binding affinity to GC1 of DNA (unknown origin) assessed as inhibition of ACCII mediated DNA hydrolysis at 50 uM preincubated for 14 hrs followed by ACCII addition and measured after 120 mins by SYBR staining-based PAGE analysis; settings: Homo sapiens
[6] = test system: Nucleic Acid; experiment: Binding affinity to GC5(5) of DNA (unknown origin) assessed as inhibition of ACCII mediated DNA hydrolysis at 10 to 50 uM preincubated for 14 hrs followed by ACCII addition and measured after 120 mins by SYBR staining-based PAGE analysis; settings: Homo sapiens; dose microM 10-50, time 14.0 hrs
[7] = test system: Nucleic Acid; experiment: Binding affinity to GC5(2) of DNA (unknown origin) assessed as inhibition of ACCII mediated DNA hydrolysis at 10 to 50 uM preincubated for 14 hrs followed by ACCII addition and measured after 120 mins by SYBR staining-based PAGE analysis; settings: Homo sapiens; dose microM 10-50, time 14.0 hrs
[8] = test system: Nucleic Acid; experiment: Binding affinity to d(CGG)16 of DNA (unknown origin) assessed as inhibition of Fnu4HI mediated DNA hydrolysis at 10 uM preincubated for 14 hrs followed by Fnu4HI addition and measured after 60 mins by SYBR staining-based PAGE analysis; settings: Homo sapiens
[9] = test system: Nucleic Acid; experiment: Binding affinity to d(CGG)16 of DNA (unknown origin) assessed as inhibition of Fnu4HI mediated DNA hydrolysis at 25 uM preincubated for 14 hrs followed by Fnu4HI addition and measured after 60 mins by SYBR staining-based PAGE analysis; settings: Homo sapiens
[10] = test system: Nucleic Acid; experiment: Binding affinity to d(CGG)10 of DNA (unknown origin) assessed as inhibition of Fnu4HI mediated DNA hydrolysis at 25 uM preincubated for 14 hrs followed by Fnu4HI addition and measured after 60 mins by SYBR staining-based PAGE analysis; settings: Homo sapiens

Activity [1]	Activity [2]	Structure (SMILES)	also measured
Active	Active	C[C@H]1CC(=O)c2c(cc3cc(OCCOCCOCC(=O)NO)cc(O)c3c2O)C1	Activity [3]: inactive
–	inactive	CCC[C@@H]1C(=O)c2c(cc3cc(O)cc(O)c3c2O)C[C@H]1C	–
–	inactive	C[C@H]1CC(=O)c2c(cc3cc(OCC(=O)NO)cc(O)c3c2O)C1	Activity [8]: Active

More lines, now with the values behind:

Structure (SMILES)	Activity [1]	Activity [2]	also measured
CCC[C@@H]1C(=O)c2c(cc3cc(OCCOCCOCCOC)cc(O)c3c2O)C[C@H]1C	inactive	–	–
CCC[C@@H]1C(=O)c2c(cc3cc(OCCOCCOCC(=O)NO)cc(O)c3c2O)C[C@H]1C	–	Active	Activity [4]: Active; Activity [5]: inactive; Activity [6]: Active
O=C(COCCOc1cc(O)c2c(O)c3c(cc2c1)CCCC3=O)NO	–	–	Activity [7]: Active
C[C@H]1CC(=O)c2c(cc3cc(O)cc(O)c3c2O)C1	–	inactive	–
O=C1CCCc2cc3cc(O)cc(O)c3c(O)c21	–	inactive	–
C[C@H]1CC(=O)c2c(cc3cc(OCCOCC(=O)NO)cc(O)c3c2O)C1	–	–	Activity [9]: Active; Activity [7]: Active; Activity [10]: Active
CCC[C@@H]1C(=O)c2c(cc3cc(OCCOCCOCC(=O)O)cc(O)c3c2O)C[C@H]1C	Active	–	–
